# What was measured:
# Epidermophyton floccosum [1] = experiment: Summary of anti-fungal assays (direct addition, agar dilution, liquid culture); type: cell-based; details: stated in words (Tables 1a/1b, text to Table 5)
# Method: (§1) This example summarizes the results of various other assays of the anti-fungal activity of betulin derivatives. Table 5 summarizes results using different assay methods—direct addition, agar dilution, and direct addition to liquid culture, as disclosed in the previous three Examples. In some cases, only one type of assay was done with a compound. In other cases, the compound was tested by multiple assays.
# Microsporum canis [2] = experiment: Agar dilution method, growth on Sabouraud dextrose agar slants; type: cell-based; design: key: +++: Maximum Fungal Growth; ++: Moderate Fungal Growth; +: Minimum Fungal Growth; +/−: Very little Fungal Growth; −: No Fungal Growth; details: 12th day after inoculation
# Method: (§2) Agar dilution method. Sabouraud Dextrose Agar (Difco Laboratories, Michigan) was prepared according to the manufacturer's instructions. Five ml was dispensed in a 100×25 mm tube and autoclaved. To each tube containing 5.0 ml of liquid agar at 45° C., 0.5, 0.25, 0.12, or 0.063 ml of a DMSO solution of the compound was added to give the final indicated concentrations in Table 2. The agar was then solidified in slants. Fungal cultures were inoculated. The slants were incubated at 25-28° C. for 10-12 days, and the growth of the fungus was recorded every second day.
# Microsporum gypseum = experiment: as above; type: cell-based; design: key: +++: Maximum Fungal Growth; ++: Moderate Fungal Growth; +: Minimum Fungal Growth; +/−: Very little Fungal Growth; −: No Fungal Growth; details: 12th day after inoculation
# Method: as §2
# Pityrosporum ovale [3] = experiment: as above; type: cell-based; design: key: +++: Maximum Fungal Growth; ++: Moderate Fungal Growth; +: Minimum Fungal Growth; +/−: Very little Fungal Growth; −: No Fungal Growth; details: 12th day after inoculation
# Method: as §2
# Trichophyton rubrum [4] = experiment: as above; type: cell-based; design: key: +++: Maximum Fungal Growth; ++: Moderate Fungal Growth; +: Minimum Fungal Growth; +/−: Very little Fungal Growth; −: No Fungal Growth; details: 12th day after inoculation
# Method: as §2
# Microsporum audouinni [5] = experiment: as above; type: cell-based, Microsporum audouinii; design: key: +++: Maximum Fungal Growth; ++: Moderate Fungal Growth; +: Minimum Fungal Growth; +/−: Very little Fungal Growth; −: No Fungal Growth; details: 12th day after inoculation
# Method: as §2
# Trichophyton tonsuran = experiment: as above; type: cell-based, Trichophyton tonsurans; design: key: +++: Maximum Fungal Growth; ++: Moderate Fungal Growth; +: Minimum Fungal Growth; +/−: Very little Fungal Growth; −: No Fungal Growth; details: 12th day after inoculation
# Method: as §2
# [6] = test system: Trichophyton mentagrophyte; experiment: as above; type: cell-based, Trichophyton mentagrophytes; design: key to Fungal growth: +++: Maximum Fungal Growth; ++: Moderate Fungal Growth; +: Minimum Fungal Growth; +/−: Very little Fungal Growth; −: No Fungal Growth; details: 12th day after inoculation
# Method: as §2
# Epidermophyton floccosum [7] = experiment: as above; type: cell-based; design: key to Fungal growth: +++: Maximum Fungal Growth; ++: Moderate Fungal Growth; +: Minimum Fungal Growth; +/−: Very little Fungal Growth; −: No Fungal Growth; details: 12th day after inoculation
# Method: as §2
# Microsporum audouinii = experiment: Summary of anti-fungal assays (direct addition, agar dilution, liquid culture); type: cell-based; details: stated in words (Tables 1a/1b, text to Table 5)
# Method: as §1
# Trichophyton tonsurans = experiment: as above; type: cell-based; details: stated in words (Tables 1a/1b, text to Table 5)
# Method: as §1
# Microsporum audouinni [8] = experiment: Direct addition method, solid compound in Sabouraud dextrose agar; type: cell-based, Microsporum audouinii; design: key to Fungal growth: +++: Maximum Fungal Growth; ++: Moderate Fungal Growth; +: Minimum Fungal Growth; +/−: Very little Fungal Growth; −: No Fungal Growth
# Method: (§3) Direct addition method. Sabouraud dextrose agar was prepared according to the manufacturer's instructions and 5.0 ml was dispensed in each 100×25 mm tube. The tubes were autoclaved. To each tube containing 5.0 ml of liquid agar at 45° C., 20 mg of solid test compound was added, to give a final concentration of 4 mg/ml. The agar was solidified in slants. The fungal cultures were then innoculated. The slants were incubated at 25-28 ° C. for 10-12 days, and the growth of the fungus was recorded every second day. The results in Table 2 indicate growth at the 12th day of inoculation.
# Pityrosporum ovale [9] = experiment: Direct addition into the Pityrosporum agar; type: cell-based; design: key to Pityrosporum ovale growth: +++: Maximum Growth; ++: Moderate Growth; +: Minimum Growth; +/−: Very Little Growth; −: No Growth; details: 4 mg/ml in the agar; 18 hours after inoculation
# Method: as §3, with “The slants were incubated at 25-28 ° C. for 10-12 days, and the growth of the fungus was recorded every second day. The results in Table 2 indicate growth at the 12th day of inoculation.” left out
# Epidermophyton floccosum [10] = experiment: Direct addition method, solid compound in Sabouraud dextrose agar; type: cell-based; design: key: +++: Maximum Fungal Growth; ++: Moderate Fungal Growth; +: Minimum Fungal Growth; +/−: Very little Fungal Growth; −: No Fungal Growth; details: 4 mg/mL of agar; 12th day after inoculation
# Method: as §3
# Microsporum canis [11] = experiment: as above; type: cell-based; design: key: +++: Maximum Fungal Growth; ++: Moderate Fungal Growth; +: Minimum Fungal Growth; +/−: Very little Fungal Growth; −: No Fungal Growth; details: 4 mg/mL of agar; 12th day after inoculation
# Method: as §3
# Pityrosporum ovale [12] = experiment: as above; type: cell-based; design: key: +++: Maximum Fungal Growth; ++: Moderate Fungal Growth; +: Minimum Fungal Growth; +/−: Very little Fungal Growth; −: No Fungal Growth; details: 4 mg/mL of agar; 12th day after inoculation
# Method: as §3
# Trichophyton rubrum [13] = experiment: as above; type: cell-based; design: key: +++: Maximum Fungal Growth; ++: Moderate Fungal Growth; +: Minimum Fungal Growth; +/−: Very little Fungal Growth; −: No Fungal Growth; details: 4 mg/mL of agar; 12th day after inoculation
# Method: as §3
compound,measurement,setting,value
C=C(C)C1CCC2(COC(=O)COCC(=O)O)CCC3(C)C(CCC4C5(C)CCC(O)C(C)(C)C5CCC43C)C12 (stereo not drawn) [Betulin-28-diglycolate],Active against Epidermophyton floccosum,Epidermophyton floccosum [1],against Epidermophyton floccosum
C=C(C)C1CCC2(COC(=O)c3ccccc3C(=O)O)CCC3(C)C(CCC4C5(C)CCC(O)C(C)(C)C5CCC43C)C12 (stereo not drawn) [Betulin-28-phthalate],Fungal growth,Microsporum canis [2]; 12.5 μg/ml,++
same,Fungal growth,Microsporum canis [2]; 25 μg/ml,+
same,Fungal growth,Microsporum canis [2]; 50 μg/ml,−
same,Fungal growth,Microsporum canis [2]; 100 μg/ml,−
same,Fungal growth,Microsporum gypseum; 12.5 μg/ml,+++
same,Fungal growth,Microsporum gypseum; 25 μg/ml,++
same,Fungal growth,Microsporum gypseum; 50 μg/ml,++
same,Fungal growth,Microsporum gypseum; 100 μg/ml,−
same,Fungal growth,Pityrosporum ovale [3]; 12.5 μg/ml,+++
same,Fungal growth,Pityrosporum ovale [3]; 25 μg/ml,+++
same,Fungal growth,Pityrosporum ovale [3]; 50 μg/ml,++
same,Fungal growth,Pityrosporum ovale [3]; 100 μg/ml,−
same,Fungal growth,Trichophyton rubrum [4]; 12.5 μg/ml,++
same,Fungal growth,Trichophyton rubrum [4]; 25 μg/ml,+
same,Fungal growth,Trichophyton rubrum [4]; 50 μg/ml,+
same,Fungal growth,Trichophyton rubrum [4]; 100 μg/ml,−
same,Fungal growth,Microsporum audouinni [5]; 12.5 μg/ml,++
same,Fungal growth,Microsporum audouinni [5]; 25 μg/ml,+
same,Fungal growth,Microsporum audouinni [5]; 50 μg/ml,−
same,Fungal growth,Microsporum audouinni [5]; 100 μg/ml,−
same,Fungal growth,Trichophyton tonsuran; 12.5 μg/ml,++
same,Fungal growth,Trichophyton tonsuran; 25 μg/ml,+
same,Fungal growth,Trichophyton tonsuran; 50 μg/ml,−
same,Fungal growth,Trichophyton tonsuran; 100 μg/ml,−
same,Fungal growth,[6]; 12.5 μg/ml,+++
same,Fungal growth,[6]; 25 μg/ml,++
same,Fungal growth,[6]; 50 μg/ml,+
same,Fungal growth,[6]; 100 μg/ml,−
same,Fungal growth,Epidermophyton floccosum [7]; 12.5 μg/ml,+++
same,Fungal growth,Epidermophyton floccosum [7]; 25 μg/ml,++
same,Fungal growth,Epidermophyton floccosum [7]; 50 μg/ml,+
same,Fungal growth,Epidermophyton floccosum [7]; 100 μg/ml,−
same,Active against Microsporum audouinii,Microsporum audouinii,Microsporum audouinii
same,Active against Trichophyton tonsurans,Trichophyton tonsurans,Trichophyton tonsurans
C=C(C)C1CCC2(COC(=O)CCC(=O)O)CC[C@@]3(C)C(CCC4[C@@]5(C)CCC(O)C(C)(C)C5CC[C@]43C)C12 (stereo partly drawn) [Betulin-28-succinate],Fungal growth,Microsporum canis [2]; 125 μg/ml,+
same,Fungal growth,Microsporum canis [2]; 250 μg/ml,+
same,Fungal growth,Microsporum canis [2]; 500 μg/ml,+
same,Fungal growth,Microsporum canis [2]; 1000 μg/ml,−
same,Fungal growth,Microsporum gypseum; 125 μg/ml,++
same,Fungal growth,Microsporum gypseum; 250 μg/ml,+
same,Fungal growth,Microsporum gypseum; 500 μg/ml,+
same,Fungal growth,Microsporum gypseum; 1000 μg/ml,−
same,Fungal growth,Pityrosporum ovale [3]; 125 μg/ml,+++
same,Fungal growth,Pityrosporum ovale [3]; 250 μg/ml,+++
same,Fungal growth,Pityrosporum ovale [3]; 500 μg/ml,+++
same,Fungal growth,Pityrosporum ovale [3]; 1000 μg/ml,++
same,Fungal growth,Trichophyton rubrum [4]; 125 μg/ml,+
same,Fungal growth,Trichophyton rubrum [4]; 250 μg/ml,+
same,Fungal growth,Trichophyton rubrum [4]; 500 μg/ml,+
same,Fungal growth,Trichophyton rubrum [4]; 1000 μg/ml,−
same,Fungal growth,Microsporum audouinni [5]; 125 μg/ml,+
same,Fungal growth,Microsporum audouinni [5]; 250 μg/ml,+/−
same,Fungal growth,Microsporum audouinni [5]; 500 μg/ml,−
same,Fungal growth,Microsporum audouinni [5]; 1000 μg/ml,−
same,Fungal growth,Trichophyton tonsuran; 125 μg/ml,++
same,Fungal growth,Trichophyton tonsuran; 250 μg/ml,+
same,Fungal growth,Trichophyton tonsuran; 500 μg/ml,+
same,Fungal growth,Trichophyton tonsuran; 1000 μg/ml,−
same,Fungal growth,[6]; 125 μg/ml,++
same,Fungal growth,[6]; 250 μg/ml,+
same,Fungal growth,[6]; 500 μg/ml,+
same,Fungal growth,[6]; 1000 μg/ml,−
same,Fungal growth,Epidermophyton floccosum [7]; 125 μg/ml,++
same,Fungal growth,Epidermophyton floccosum [7]; 250 μg/ml,+
same,Fungal growth,Epidermophyton floccosum [7]; 500 μg/ml,+
same,Fungal growth,Epidermophyton floccosum [7]; 1000 μg/ml,−
same,Fungal growth,"Microsporum audouinni [8]; 4 mg/mL of agar, 12th day after inoculation",−
same,best anti-fungal or anti-yeast activity by the direct addition method,Microsporum audouinni [8]; against Microsporum audouinii,against Microsporum audouinii
same,Pityrosporum ovale growth,Pityrosporum ovale [9],+
same,Active against Microsporum audouinii,Microsporum audouinii,Microsporum audouinii
same,Fungal growth,Epidermophyton floccosum [10],−
same,Fungal growth,Microsporum canis [11],+
same,Fungal growth,Pityrosporum ovale [12],−
same,Fungal growth,Trichophyton rubrum [13],+
